According to PMC5717164 (Nature Communications, 2017):

Legend:
[1] = target: T1, D-alanine:D-alanine ligase (EcDdlB) (Escherichia coli, UniProt P07862); assay: co-crystal structures at […] Å (with D-Ala-D-Ala) and […] Å (with DCSP, 4C5A); format: binding
T1 construct: gene ddlB; all 306 residues of the native protein, with amino-terminal histidine-tag

[2] = target: T1, D-alanine:D-alanine ligase (EcDdlB); assay: co-crystal structure at […] Å (formed in situ from ATP and DCS); format: binding

Compound | co-crystal structures at 1.5 Å (with D-Ala-D-Ala) and 1.65 Å (with DCSP, 4C5A) [1] | co-crystal structure at 1.65 Å (formed in situ from ATP and DCS) [2]
Nc1ncnc2c1ncn2[C@@H]1O[C@H](COP(=O)(O)OP(=O)(O)O)[C@@H](O)[C@H]1O [ADP] | The adenine ring of the ATP or ADP ligand lies in a pocket mainly composed of hydrophobic and aromatic residues | 
NC1CON=C1OP(=O)(O)O [DCSP, phosphorylated D-cycloserine] |  | phosphorylated DCS was bound in the high-affinity D-alanine binding site (D-Ala1)
